Laboratory results taken from ChEMBL document CHEMBL1201862, “PubChem BioAssay data set” (2004).
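Following 48 hours of exposure in 96-well plates, responses at five concentrations were used to interpolate endpoints linearly. GI50 is the concentration that inhibits growth by half.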 Active and inactive are the calls of the source. Cut-off read from the data, not from the text of the source: active = GI50 up to about 1.1 µM and inactive = higher.

Key:
Assay in all cases: NCI tumour cell line growth inhibition, 48 h
OVCAR-5 = test system: OVCAR-5
OVCAR-3 = test system: OVCAR-3
SNB-19 = test system: SNB-19
MCF7 = test system: MCF7
HCT-116 = test system: HCT-116
SK-MEL-2 = test system: SK-MEL-2
MOLT-4 = test system: MOLT-4
HT-29 = test system: HT-29
SK-OV-3 = test system: SK-OV-3
EKVX = test system: EKVX
NCI-H23 = test system: NCI-H23
HCT-15 = test system: HCT-15
NCI-H226 = test system: NCI-H226
T47D = test system: T47D
786-0 = test system: 786-0
SNB-75 = test system: SNB-75
SF-268 = test system: SF-268
SN12C = test system: SN12C
CAKI-1 = test system: CAKI-1
TK-10 = test system: TK-10

In the case of `c1cc(CSSCc2ccncc2)ccn1`, the GI50 (OVCAR-5) is reported as 55.5 µM (inactive), the GI50 (OVCAR-3) is reported as 33.6 µM (inactive) and the GI50 (SNB-19) is reported as 34 µM (inactive). For the same molecule, the GI50 (MCF7) was 32.8 µM (inactive), the GI50 (HCT-116) was 14.1 µM (inactive) and the GI50 (SK-MEL-2) was 27.9 µM (inactive). The GI50 (MOLT-4) was 3.21 µM (inactive), the GI50 (HT-29) was 24.2 µM (inactive) and the GI50 (SK-OV-3) was 23.1 µM (inactive). For the same molecule, the GI50 (EKVX) was 54.8 µM (inactive), the GI50 (NCI-H23) was 22 µM (inactive) and the GI50 (HCT-15) was 19.4 µM. For the same molecule, the GI50 (NCI-H226) was 30.6 µM (inactive), the GI50 (T47D) was > 67.9 µM (inactive) and the GI50 (786-0) was 10.4 µM (inactive). For the same molecule, the GI50 (SNB-75) was 57.1 µM (inactive), the GI50 (SF-268) was 28.4 µM (inactive) and the GI50 (SN12C) was 25.2 µM (inactive). For the same molecule, the GI50 (CAKI-1) was 29.5 µM (inactive) and the GI50 (TK-10) was 13.8 µM (inactive).

For `O=C(c1ccc(Cl)cc1)c1cnc(Nc2ccccc2Cl)s1`, the GI50 (OVCAR-5) was 29.8 µM (inactive), the GI50 (OVCAR-3) was 18.3 µM (inactive) and the GI50 (SNB-19) was 20.2 µM (inactive). The GI50 (MCF7) was 31.5 µM (inactive), the GI50 (HCT-116) was 21 µM (inactive) and the GI50 (SK-MEL-2) was 15.6 µM (inactive). For the same molecule, the GI50 (MOLT-4) was > 100 µM (inactive), the GI50 (HT-29) was 27.1 µM (inactive) and the GI50 (SK-OV-3) was 23 µM (inactive). For the same molecule, the GI50 (EKVX) was 22.9 µM (inactive), the GI50 (NCI-H23) was 22 µM (inactive) and the GI50 (HCT-15) was 22.8 µM. For the same molecule, the GI50 (NCI-H226) was 25.8 µM (inactive), the GI50 (T47D) was 19.3 µM (inactive) and the GI50 (786-0) was 17.5 µM (inactive). The GI50 (SNB-75) was 19.6 µM (inactive), the GI50 (SF-268) was 26.4 µM (inactive) and the GI50 (SN12C) was 22.3 µM (inactive). For the same molecule, the GI50 (CAKI-1) was 17.3 µM (inactive) and the GI50 (TK-10) was 18.5 µM (inactive).

For `CC1(C)C=[N+]([O-])C(C)(C)N1`, the GI50 (OVCAR-5) was > 100 µM (inactive), the GI50 (OVCAR-3) was > 100 µM (inactive) and the GI50 (SNB-19) was > 100 µM (inactive). The GI50 (MCF7) was > 100 µM (inactive), the GI50 (HCT-116) was > 100 µM (inactive) and the GI50 (SK-MEL-2) was > 100 µM (inactive). For the same molecule, the GI50 (MOLT-4) was > 100 µM (inactive), the GI50 (HT-29) was > 100 µM (inactive) and the GI50 (SK-OV-3) was > 100 µM (inactive). For the same molecule, the GI50 (EKVX) was > 100 µM (inactive), the GI50 (NCI-H23) was > 100 µM (inactive) and the GI50 (HCT-15) was over 100 µM. For the same molecule, the GI50 (NCI-H226) was > 100 µM (inactive), the GI50 (T47D) was > 100 µM (inactive) and the GI50 (786-0) was > 100 µM (inactive). The GI50 (SNB-75) was > 100 µM (inactive), the GI50 (SF-268) was > 100 µM (inactive) and the GI50 (SN12C) was > 100 µM (inactive). The GI50 (CAKI-1) was > 100 µM (inactive) and the GI50 (TK-10) was > 100 µM (inactive).

In the case of `Clc1ccc(-c2nn3c(COc4cccc(OCc5nnc6sc(-c7ccc(Cl)cc7)nn56)c4)nnc3s2)cc1`, the GI50 (OVCAR-5) is reported as 28.6 µM (inactive), the GI50 (OVCAR-3) is reported as 6.78 µM (inactive) and the GI50 (SNB-19) is reported as 24.6 µM (inactive). For the same molecule, the GI50 (MCF7) was 14.1 µM (inactive), the GI50 (HCT-116) was 18.6 µM (inactive) and the GI50 (SK-MEL-2) was 58.5 µM (inactive). The GI50 (MOLT-4) was 14.3 µM (inactive), the GI50 (HT-29) was 24.5 µM (inactive) and the GI50 (SK-OV-3) was 51.3 µM (inactive). The GI50 (EKVX) was 21.3 µM (inactive), the GI50 (NCI-H23) was 22.3 µM (inactive) and the GI50 (HCT-15) was 27.5 µM. The GI50 (NCI-H226) was > 100 µM (inactive), the GI50 (T47D) was 17.3 µM (inactive) and the GI50 (786-0) was 15.1 µM (inactive). For the same molecule, the GI50 (SNB-75) was 23 µM (inactive), the GI50 (SF-268) was 21.7 µM (inactive) and the GI50 (SN12C) was 12.6 µM (inactive). For the same molecule, the GI50 (CAKI-1) was 22 µM (inactive) and the GI50 (TK-10) was 36.8 µM (inactive).

In the case of `CC1(c2cccc(C(F)(F)F)c2)CC(c2cccc(C(F)(F)F)c2)=C(C#N)C(=C(C#N)C#N)N1` (stereo not given), the GI50 (OVCAR-5) is reported as 18.2 µM (inactive), the GI50 (OVCAR-3) is reported as 11.9 µM (inactive) and the GI50 (SNB-19) is reported as 19.4 µM (inactive). The GI50 (MCF7) was 16.7 µM (inactive), the GI50 (HCT-116) was 15.2 µM (inactive) and the GI50 (SK-MEL-2) was 19.6 µM (inactive). The GI50 (MOLT-4) was 19.2 µM (inactive), the GI50 (HT-29) was 18.8 µM (inactive) and the GI50 (SK-OV-3) was 16.1 µM (inactive). For the same molecule, the GI50 (EKVX) was 17.9 µM (inactive), the GI50 (NCI-H23) was 19.3 µM (inactive) and the GI50 (HCT-15) was 16.4 µM. The GI50 (NCI-H226) was 18.2 µM (inactive), the GI50 (T47D) was 17 µM (inactive) and the GI50 (786-0) was 17 µM (inactive). The GI50 (SNB-75) was 19.3 µM (inactive), the GI50 (SF-268) was 15 µM (inactive) and the GI50 (SN12C) was 18.1 µM (inactive). The GI50 (CAKI-1) was 18.7 µM (inactive) and the GI50 (TK-10) was 16.8 µM (inactive).

With `CC(C)[C@@H]1NC(=O)[C@H]2N=C(O[C@@H]2C)[C@@H]2CCCN2C(=O)[C@H](Cc2ccccc2)NC(=O)[C@@H]2CSC(=N2)[C@@H](Cc2ccccc2)NC(=O)[C@@H]2CSC1=N2` the GI50 (OVCAR-5) was > 50 µM (inactive), the GI50 (OVCAR-3) was 47 µM (inactive) and the GI50 (SNB-19) was > 50 µM (inactive). For the same molecule, the GI50 (MCF7) was 18.9 µM (inactive), the GI50 (HCT-116) was > 50 µM (inactive) and the GI50 (SK-MEL-2) was > 50 µM (inactive). For the same molecule, the GI50 (MOLT-4) was 26.8 µM (inactive), the GI50 (HT-29) was 38.8 µM (inactive) and the GI50 (SK-OV-3) was > 50 µM (inactive). For the same molecule, the GI50 (EKVX) was > 50 µM (inactive), the GI50 (NCI-H23) was > 50 µM (inactive) and the GI50 (HCT-15) was 33.2 µM. For the same molecule, the GI50 (NCI-H226) was 38.5 µM (inactive), the GI50 (T47D) was > 50 µM (inactive) and the GI50 (786-0) was > 50 µM (inactive). For the same molecule, the GI50 (SNB-75) was 0.216 µM (active), the GI50 (SF-268) was > 50 µM (inactive) and the GI50 (SN12C) was > 50 µM (inactive). For the same molecule, the GI50 (CAKI-1) was > 50 µM (inactive) and the GI50 (TK-10) was > 50 µM (inactive).

In the case of `C=C1CCC(CC[C@@H]2CC[C@]3(OC2)O[C@@]2(O)CC[C@]3(C)OC2(C)C)C(C)(C)[C@H]1C/C=C1/C(=O)OC[C@@H]1O` (stereo not given in full), the GI50 (OVCAR-5) is reported as 2.5 µM (inactive), the GI50 (OVCAR-3) is reported as 2.57 µM (inactive) and the GI50 (SNB-19) is reported as 2.89 µM (inactive). The GI50 (MCF7) was 1.11 µM (active), the GI50 (HCT-116) was 0.71 µM (active) and the GI50 (SK-MEL-2) was 0.524 µM (active). The GI50 (MOLT-4) was 1.59 µM (inactive), the GI50 (HT-29) was 1.63 µM (inactive) and the GI50 (SK-OV-3) was 4.85 µM (inactive). The GI50 (EKVX) was 2.96 µM (inactive), the GI50 (NCI-H23) was 0.445 µM (active) and the GI50 (HCT-15) was 1.22 µM. For the same molecule, the GI50 (NCI-H226) was 2.29 µM (inactive), the GI50 (T47D) was 0.413 µM (active) and the GI50 (786-0) was 2.96 µM (inactive). The GI50 (SNB-75) was 7.29 µM (inactive), the GI50 (SF-268) was 3.01 µM (inactive) and the GI50 (SN12C) was 2.36 µM (inactive). For the same molecule, the GI50 (CAKI-1) was 5 µM (inactive) and the GI50 (TK-10) was 6.12 µM (inactive).

`O=CN1CCN(C(=O)c2ccco2)C1=S` was tested, and the GI50 (OVCAR-5) was 19.4 µM (inactive), the GI50 (OVCAR-3) was 4.39 µM (inactive) and the GI50 (SNB-19) was 22.1 µM (inactive). For the same molecule, the GI50 (MCF7) was 2.7 µM (inactive), the GI50 (HCT-116) was 12.2 µM (inactive) and the GI50 (SK-MEL-2) was 17.2 µM (inactive). The GI50 (MOLT-4) was 8.24 µM (inactive), the GI50 (HT-29) was 11.3 µM (inactive) and the GI50 (SK-OV-3) was 24.3 µM (inactive). For the same molecule, the GI50 (EKVX) was 17.6 µM (inactive), the GI50 (NCI-H23) was 15.6 µM (inactive) and the GI50 (HCT-15) was 7.83 µM. The GI50 (NCI-H226) was 22.9 µM (inactive), the GI50 (T47D) was 4.07 µM (inactive) and the GI50 (786-0) was 3.13 µM (inactive). For the same molecule, the GI50 (SNB-75) was 12.5 µM (inactive), the GI50 (SF-268) was 7.05 µM (inactive) and the GI50 (SN12C) was 4.01 µM (inactive). The GI50 (CAKI-1) was 5.38 µM (inactive) and the GI50 (TK-10) was 14.3 µM (inactive).

In the case of `COc1ccc(-c2oc3cc(OC)c(OC)c(OC)c3c(=O)c2OC)cc1OC` [HEXAMETHOXYFLAVONE], the GI50 (OVCAR-5) is reported as > 100 µM (inactive), the GI50 (OVCAR-3) is reported as > 100 µM (inactive) and the GI50 (SNB-19) is reported as > 100 µM (inactive). The GI50 (MCF7) was > 100 µM (inactive), the GI50 (HCT-116) was > 100 µM (inactive) and the GI50 (SK-MEL-2) was > 100 µM (inactive). For the same molecule, the GI50 (MOLT-4) was > 100 µM (inactive), the GI50 (HT-29) was > 100 µM (inactive) and the GI50 (SK-OV-3) was > 100 µM (inactive). For the same molecule, the GI50 (EKVX) was > 100 µM (inactive), the GI50 (NCI-H23) was > 100 µM (inactive) and the GI50 (HCT-15) was over 100 µM. For the same molecule, the GI50 (NCI-H226) was > 100 µM (inactive), the GI50 (T47D) was 79.6 µM (inactive) and the GI50 (786-0) was > 100 µM (inactive). The GI50 (SNB-75) was > 100 µM (inactive), the GI50 (SF-268) was > 100 µM (inactive) and the GI50 (SN12C) was > 100 µM (inactive). The GI50 (CAKI-1) was > 100 µM (inactive) and the GI50 (TK-10) was > 100 µM (inactive).
